# Laboratory results reported in publication PMC2374394, “Relationships between hydrophobicity, reactivity, accumulation and peripheral nerve toxicity of a series of platinum drugs” (British Journal of Cancer, 2000).
# Several values for one entry are separate records, joined by “and”; a condition that tells them apart may be missing. Equal entries are not always repeated. Where two headings read alike, the source gives them in different places.
# What was measured:
# [1] = Hydrophobicity (log kw), reverse-phase HPLC coupled to ICP-MS; type: physicochemical; conditions: HPLC C8 column, actual or projected mobile phase 100% water; determinants from independent experiments
# [2] = system: female Wistar rats; conditions: cited from earlier work
# [3] = system: female Wistar rats
# Method: Neurotoxicity was detected by measuring sensory nerve conduction velocity (SNCV) in Wistar rats treated twice per week at the maximum tolerated dose. […] Animals and treatment Age-matched inbred female Wistar rats were used. Animals were allowed to acclimatize for 2 weeks before the start of the experiment. The animals were 10 weeks old and weighed 210- 240 g at the start of experiment. Platinum compounds (except JM216) were dissolved in sterile 0.9% (w/v) NaCl (Baxter Healthcare, New Zealand) by vortex mixing and sonication at an injection volume of 10 ml kg-1 . The platinum compounds (except JM216) were given by intraperitoneal injection on a twice per week dosing schedule at intervals of 3-4 days and the treatment was repeated weekly for a total of 8 weeks. […] Animals were weighed twice a week and checked for signs of toxicity daily. Animals showing signs of distress were immediately and painlessly killed. Animals had continuous access to food and water. […] Hypnorm (fluanisone 10 mg ml-1 , fentanyl citrate 0.3 mg ml-1 , Jansen Pharmaceuticals, Sydney, Australia) diluted 1:1 with sterile water was given by intramuscular injection to provide light anaesthesia. Responses were evoked by stimu- lating the sciatic nerve at the sciatic notch and the tibial nerve at the ankle of the left hind limb using percutaneous needle elec- trodes.
# [4] = system: patients; conditions: cited from earlier work
# [5] = system: plasma proteins
# [6] = Hydrophobicity (log P), octanol-saline shake-flask method; conditions: n-octanol / 0.9% NaCl shake-flask, platinum by ICP-MS, mean (n = 5)
# [7] = system: plasma proteins; set-up: method as in van der Vijgh and Klein, 1986; conditions: ref van der Vijgh and Klein, 1986; cited from earlier work
# [8] = female Wistar rats, twice per week dosing schedule at the MTD, same protocol (JM216 by oral gavage), previous results ref McKeage et al, 1994, Screnci et al, 1997
# [9] = female Wistar rats, twice per week dosing schedule at the MTD, intraperitoneal
# [10] = rat plasma, 37C, initial half-life by one-phase exponential decay
smiles,measurement,setting,value
"O=C1[O][Pt-2]2([NH2+]C3CCCC[C@H]3[NH2+]2)[O]C1=O (stereo partly drawn) [Oxaliplatin, R,R-(DACH)Pt(oxalato)]",Log kw,[1],0.44 and 0.45
same,Time to development of altered SNCV,[2]; [8],3.0 weeks
"N[C@@H]1CCCC[C@H]1N.[Cl][Pt+2]([Cl])([Cl])[Cl] (racemic) [Ormaplatin, rac-(DACH)PtCl4]",Log kw,[1],0.40 and 0.41
same,Neurotoxic potency (cumulative dose causing altered SNCV),"[3]; female Wistar rats, repeated treatment twice per week at the MTD, intraperitoneal",26.0
same,Time to development of altered SNCV,[3]; [9],6.0 weeks
same,Incidence of neurotoxicity in patients % (95% CI),"[4]; ref Schilder et al, 1994, O'Rourke et al, 1998",87 (47-100) %
"NC1CCCCC1N.O=C([O-])C(=O)[O-].[Pt+2] (stereo not drawn) [S,S-(DACH)Pt oxalato]",Log kw,[1],0.44 and 0.45
same,"t (h), half-life of binding to plasma proteins in vitro","[5]; rat, plasma",1.21 h
same,Time to development of altered SNCV,"[2]; rat, in vivo, po",7.0 weeks
"CC(=O)[O][Pt]([NH2])([Cl])([Cl])([NH]C1CCCCC1)[O]C(C)=O [JM216, bis-acetato-ammine-dichloro-cyclohexylamine-platinum(IV)]",Log kw,[1],2.27 and 2.40
same,"t (h), half-life of binding to plasma proteins in vitro",[5]; [10],65 h
same,Incidence of neurotoxicity in patients % (95% CI),"[4]; ref Judson et al, 1997",5.6 (0-27) %
same,Time to development of altered SNCV,[2]; [8],> 20.5 weeks
same,Log P,[6],-0.16
N.N.O=C([O-])C1(C(=O)[O-])CCC1.[Pt+2] [Carboplatin],Log kw,[1],0.20
same,Time to development of altered SNCV,[3]; [9],8.0 weeks
same,Incidence of neurotoxicity in patients % (95% CI),"[4]; ref Canetta et al, 1985",5.8 (3.8-8.5) %
same,"t (h), half-life of binding to plasma proteins in vitro",[7],48.6 h
same,Log P,[6],-2.3
same,Log P,[6]; listed as carboplatin,-2.30
N.N.[Cl][Pt][Cl] [Cisplatin],Time to development of altered SNCV,"[3]; rat, in vivo, ip",7.0 weeks
"NC1CCCCC1N.[Cl-].[Cl-].[Cl-].[Cl-].[Pt+4] (stereo not drawn) [R,R-(DACH)PtCl4]",Log kw,[1],0.40 and 0.42
same,"t (h), half-life of binding to plasma proteins in vitro",[5]; [10],0.97 h
same,Time to development of altered SNCV,"[2]; rat, in vivo, po",4.0 weeks
"NC1CCCCC1N.[Cl-].[Cl-].[Cl-].[Cl-].[Pt+4] (stereo not drawn) [S,S-(DACH)PtCl4]",Log kw,[1],0.41
same,"t (h), half-life of binding to plasma proteins in vitro",[5]; [10],0.78 h
same,Time to development of altered SNCV,"[2]; rat, in vivo, po",7.0 weeks
